# According to patent US9034876B2, “Treatment of chronic inflammation with a 1,2,4-triazolo [1,5a] pyridine derivative” (Cephalon, Inc., priority 2010, dated 2015):
# Test system: phospho-STAT3
# Experiment: CAIA model, paw phospho-STAT3 (Luminex bead assay)
# Type: in vivo, female DBA/1 mice
# Settings: Dex 1.5 mg/kg i.p. three times a week (day 6-8)
# Procedure: DBA/1 female mice were injected i.v. with purified anti-collagen type II antibodies, then given 25 μg of LPS i.p. three days later to induce arthritis by day 5. Mice that met the arthritis criteria score of 1 per paw were entered into the study. Compound A was provided orally, b.i.d., for all doses tested; Dex was provided at 1.5 mg/kg three times a week, i.p.; and vehicle (PEG400+1% DMSO) was provided orally.
# The graphed data was generated using Luminex® bead kits, concentration in units per ml per 3 mg of total protein as determined by the BSA assay. The graphed data represents mean±SEM, statistics were performed using 2-way ANOVA analysis.
# To investigate the effect of Compound A on levels of phosphorylated STATs and cytokines in the paws of treated mice, a method was developed whereby synovial fluid and cellular joint extracts could be obtained from the paws and ankles of diseased animals for analysis using multiplex bead arrays [32]. […] Consequently, multiplex analysis was used as the primary method of measuring phosphorylated STATs for all experiments described herein.
# Briefly, the front (including carpus) and back (including tarsus) right paws were collected and frozen in dry-ice cooled isopentane and stored at −80° C. until use. The paws were cut to 2 mm×2 mm segments and kept on dry-ice in round bottom polypropylene tubes. Seven hundred microliters tissue extraction buffer containing protease inhibitor cocktail (Calbiochem, San Diego, Calif.) and Halt phosphatase inhibitor cocktail (Thermo Scientific, Rockford, Ill.) or Roche phosphatase inhibitor cocktail (Roche, Indianapolis, Ind.) in tissue extraction reagent I (Invitrogen, Carlesbad, Calif.) were added to each sample. Samples were homogenized frozen using a PT 10-35 Polytron homogenizer. After homogenization, samples were centrifuged at 4° C. for 2000×g for 10 minutes and supernatants re-centrifuged at 4° C. at maximum speed, 14,000×g, for 15 minutes. Supernatants were carefully removed to avoid picking up the top layer of lipids/adipose debris. Protein concentration was measured using a BCA protein assay (Pierce, Rockford, Ill.) and adjusted to 3 mg/ml. A minimum of 25 μl of this extraction was used in the above described protocol using the mouse cytokine 10-plex bead kit (Invitrogen, Carlsbad, Calif.) or phosphorylated STAT1, 3, 5a/b, 3-plex kit (Invitrogen, Carlsbad, Calif.).
smiles,measurement,value
"C[C@@H]1C[C@H]2[C@@H]3CCC4=CC(=O)C=C[C@]4(C)[C@@]3(F)[C@@H](O)C[C@]2(C)[C@@]1(O)C(=O)CO [Dex, Dexamethasone, reference compound]",time post treatment initiation at which the pSTAT3 reduction was reached,48 hours
